Assay results as given in US11733243B2, “Use of acamprosate to modulate ERK1/2 activation in animal models for FXS and ASD and individuals diagnosed with FXS and ASD” (Indiana University Research and Technology Corporation, priority 2013, dated 2023).

Tested on: youths with autistic disorder
Assay: 12-week single-blind placebo lead-in trial of acamprosate in youths with autistic disorder: behavioral outcome measures
Assay type: in vivo, human
Protocol: One study was a 12-week single-blind, placebo-controlled trial of acamprosate in 12 youths with autistic disorder was conducted. The primary outcome measured was the Clinical Global Impression Improvement (CGI-I) scale with several additional behavioral secondary outcome measures employed. In this study, secreted amyloid precursor protein (sAPP) was measured pre- and post acamprosate treatment as blood biomarker assay Result: Twelve subjects (mean age=10.4 yrs.) entered the study and nine subjects completed a two week placebo lead-in and entered active treatment (mean final dose=1,073 mg/day). Six of nine (67%) subjects receiving acamprosate were judged treatment responders with a CGI-I score of 1 “very much improved” or 2 “much improved”. […] Among secondary outcome measures analyzed, significant acamprosate-associated improvement was noted on measures of social behavior and hyperactivity. Acamprosate use was also associated with reductions in sAPP levels.
The first project enrolled 12 youth aged 5 to 17 years with fragile X syndrome and comorbid ASD in a 10-week open-label trial of acamprosate. The second project enrolled 12 youth aged 5 to 17 years diagnosed with idiopathic ASD in a 12-week single-blind placebo lead-in study of acamprosate. In both projects, concomitant dosing of psychotropic drugs remained stable throughout study. In each project, pre- and post-acamprosate treatment plasma levels of sAPP total and sAPPα were obtained. All APP assay samples were collected, chilled, and walked within 2 hours of blood draw to the lab for analysis. Plasma sAPP total and sAPPα were determined separately in serum using the ELISA kit obtained from Immuno Biological Laboratories (IBL, Gumma, Japan). The ELISA kit is validated to measure levels of sAPPα in human samples and able to detect as low as 0.09 ng/ml of sAPPα in a typical sample, with only 0.3% cross-reactivity to sAPP. Levels of sAPP total and sAPPα in plasma were reported in nanograms per milliliter (ng/mL). Statistical analyses of pre- and post-acamprosate sAPP total and sAPPα levels were conducted using paired T-tests. Finally an exploratory post-hoc analysis of potential correlation between percent change in sAPP total or sAPPα and percent change in scores on the Aberrant Behavior Checklist Social Withdrawal/Lethargy subscale (ABC-SW) was conducted. The ABC-SW measures social impairment which is a core symptom domain of ASD. Post-hoc analysis was done with Spearman correlation calculations. All data was analyzed in IBM SPSS Version 20.
A 12-week single-blind, placebo-controlled trial of the effect of acamprosate in the treatment of 12 youths with autistic disorder aged 5 to 17 years was carried out. In order to pilot test use of acamprosate in youth with autism targeting core social impairment, was conducted. All subjects and their family members were blinded to treatment status. All subjects participated in a 2 week placebo-lead-in phase prior to 10 weeks of treatment with acamprosate. For this project, enteric coated commercially available 333 mg acamprosate pills were over-encapsulated and identical matching placebo manufactured for the project. Placebo-responders, defined by a Clinical Global Impressions Improvement scale (CGI-I) score of 1 “very much improved” or 2 “much improved” (ratings anchored to core social deficits) at week 2 were asked to exit the study. During active treatment with acamprosate, dosing was increased in 333 mg increments per week over the first six weeks of active treatment to a maximum dose of 1,332 mg/day (weight<5 60 kg) or 1,998 mg/day (weight>60 kg). During the final four weeks of active drug treatment, subjects were maintained on a stable highest tolerated (optimal) dose. The primary outcome measure was the clinician-rated CGI-I anchored to symptoms of social impairment. […]

Structure (SMILES): CC(=O)NCCCS(=O)(=O)O [Acamprosate, 3-Acetamidopropane-1-sulfonic acid]
- treatment responders (CGI-I score of 1 or 2) (idiopathic ASD, nine subjects receiving acamprosate, mean final dose 1,073 mg/day): 67%
- mean CGI-I at last visit (idiopathic ASD, nine subjects, last observation carried forward): 2
- CGI-S at endpoint (idiopathic ASD, baseline 4.22+/-0.4, p=0.013): 3.7+/−0.5
- ABC Lethargy/Social Withdrawal subscale (ABC-SW) at endpoint (idiopathic ASD, baseline 14.1+/-8.5, p=0.019): 10.0+/−8.4
- ABC Hyperactivity subscale at endpoint (idiopathic ASD, baseline 25.4+/-12.6, p=0.005): 16.6+/−12.4
- ADHD-RS at endpoint (idiopathic ASD, baseline 29.5+/-10.4, p=0.002): 20.75+/−9.7
- SRS total raw score at endpoint (idiopathic ASD, baseline 107+/-28, p=0.002): 91.4+/−30
- youth judged responders to acamprosate (of those treated) (youth with idiopathic ASD): 6 of 9
